Experimental data published in US20200003760A1, “IN-VITRO METHODS FOR CLASSIFYING DRUGS ACCORDING TO THEIR POTENTIAL TO CAUSE LIVER CELL INJURY” (Board of Trustees of Michigan State University, priority 2018, published 2020).
“Also recorded” adds a separate entry of the source. Like-named read-outs stand apart in the source and are kept apart here.

Assays:
HepG2 cells = assay: Drug/cytokine-induced cytotoxicity (% LDH release) concentration-response in HepG2 cells; assay type: cell-based, human; parameters: key to Deltadiff: LDH release percentage points (drug/TNF Delta minus drug/VEH Delta); conditions: for R10 IFN: with IFN; for R10 TNF: with TNF; for R10 TNF/IFN / EC10 TNF/IFN: with TNF and IFN; for Deltadiff: Delta of drug/TNF curve minus Delta of drug/VEH curve (LDH percentage); for Emax / D10 (LDH rise of at least 10 points, yes/no): Homo sapiens; for TNF change: D10TNF − D10VEH; for cytotoxic interaction of drug with TNF / effect of IFN coexposure on the drug/TNF cytotoxic interaction / cytotoxicity of drug on its own (LDH release) / synergy with cytokines to kill HepG2 cells: HepG2, 24 h; for cytotoxic interaction of drug with TNF: TNF 10 ng/ml; for effect of IFN coexposure on the drug/TNF cytotoxic interaction: TNF and IFN 10 ng/ml each; for cytotoxicity of drug on its own (LDH release): absence of cytokines; for EC10 TNF / EC10 TNF/IFN / EC10 IFN: value corresponding to 10% of Delta; for EC10 TNF: with TNF 10 ng/ml; for EC10 TNF / EC10 TNF/IFN / EC10 / EC10 IFN: NA = no significant increase; for synergy with cytokines to kill HepG2 cells: TNF and/or IFN; for EC10: value corresponding to 10% of Delta (max-min); for EC10 IFN: with IFN 10 ng/ml
Procedure: Cells were passed or used for experiments when they reached approximately 80% confluence. Cells were used at passage 6-16.
HepG2 cells were plated at a density of 4×10^4 cells per well in black-walled, 96-well, tissue culture plates and were allowed to attach overnight before being treated with compounds. Drugs were reconstituted in vehicles consisting of sterile water or DMSO (concentration less than 0.5%). Cells were treated with various concentrations of the drug or its vehicle (control) alone or in combination with the cytokines TNF (10 ng/ml) and/or IFN (10 ng/ml) or their PBS vehicle (VEH). Cytotoxicity was evaluated as lactate dehydrogenase (LDH) activity released from the cells into culture medium using the Homogeneous Membrane Integrity Assay kit from Promega (Madison, Wis.).
Concentration-response curves were generated for 24 drugs, 14 of which are associated with human IDILI and 10 of which are not. […] This was necessary because four-parameter logistic modeling used in the statistical analysis requires well defined, sigmoidal concentration-response curves. Cells were exposed to drug/cytokine combinations for 24 hours. For analysis of drug concentration-response data, concentrations of each drug were expressed as a fraction of its Cmax.
Defining covariates: four-parameter logistic model. In the first phase, variables (potential covariates) for use in the classification analysis were defined from the analysis of drug concentration-response data. Initially, a one-way analysis of variance (ANOVA) was used as an omnibus test to determine if a particular treatment (e.g. drug alone or in combination with TNF and/or IFN) caused a significant change in LDH release relative to baseline (i.e., LDH release in the absence of drug, hereafter designated “min”). The criterion for significance for the ANOVA was set at α=0.01. A 1% level of significance was used to rule out more vigorously marginal relationships between concentration and response.
where LDH(x) is the percentage of LDH released at a given concentration x; x=[drug]/Cmax; min=the % LDH release at 0 drug concentration (i.e., baseline); and max=the maximal LDH response (i.e., maximum % LDH release).
where D10 is a categorical variable related to reaching a threshold LDH response above which a drug is classified as positively associated with IDILI. D10 is defined as 0 if Delta<10% LDH release and as 1 if Delta≥10% LDH release.
The base covariate R10 represents the [drug]/Cmax value associated with an increase in 10 LDH percentage points above min for a particular treatment condition and was determined by the equation:
R10 was considered to be 0 when the Delta<10% LDH (i.e. when D10=0).
EC50 quotient, EC10 quotient and R10 quotient represent the ratio between the EC50, EC10 or R10 of the drug/cytokine concentration-response curve and the respective value for the drug/VEH concentration-response curve. In some instances, the value derived from this calculation is indeterminate (i.e. when the denominator=0). In order to incorporate the quotient values into the classification models described below, the categorical variable “Q” was used to eliminate the possibility of the quotient being indeterminate. Q is defined as 0 if Delta VEH and/or Delta cytokine is <10% LDH and 1 if both Delta VEH and Delta cytokine are ≥10% LDH. […] The same condition was applied for calculation of EC10 quotient and R10 quotient.
Deltadiff represents the difference between the Delta of the drug/cytokine concentration-response curve and the Delta of the drug/VEH curve. In other words, Deltadiff=(Delta cytokine)−(Delta VEH). FIG. 1 graphically illustrates several of the covariates defined above. […] In addition to the covariates derived from the concentration-response curves, the maximal therapeutic plasma drug concentration (Cmax) in human patients was used in some models (Table 1).

[1] = maximal plasma concentration after pharmacologic dosing in human patients; cited from earlier work
[2] = cited from earlier work; for True classification: IDILI in human patients; for IDILI liability: criteria of Xu et al. (2008)
[3] = 10 percent increase in LDH response above min, 0 when D10 = 0, drug alone (VEH)
[4] = 10 percent increase in LDH response above min, 0 when D10 = 0
[5] = HepG2, categorical, Delta threshold 10 LDH percentage points, drug alone (VEH), read-out: D10
[6] = HepG2, maximal LDH response, drug alone (VEH), 24 h, read-out: max
[7] = HepG2, categorical, Delta threshold 10 LDH percentage points, drug alone (VEH)

Row | Structure (SMILES) | R10 (HepG2 cells; [3]) | R10 IFN (HepG2 cells; [4]) | R10 TNF (HepG2 cells; [4]) | R10 TNF/IFN (HepG2 cells; [4]) | Deltadiff (HepG2 cells) | Emax (HepG2 cells; [5]) | Emax (HepG2 cells; [6]) | TNF change (HepG2 cells; categorical) | Cmax [1] | True classification [2] | IDILI liability [2] | cytotoxic interaction of drug with TNF (HepG2 cells) | cytotoxicity of drug on its own (LDH release) (HepG2 cells) | EC10 TNF (HepG2 cells) | EC10 TNF/IFN (HepG2 cells) | EC10 (HepG2 cells; drug alone (VEH)) | EC10 IFN (HepG2 cells) | also measured
1 | O=C1CC2(CCCC2)CC(=O)N1CCCCN1CCN(c2ncccn2)CC1 [Buspirone] | 0 [drug]/Cmax | 0 [drug]/Cmax | 0 [drug]/Cmax | 0 [drug]/Cmax | 0 | < 10% | 17.6% | 0 | 0.005 µM | IDILI− | IDILI− | – | – | – | – | – | – | –
2 | O=C(O)Cc1ccccc1Nc1c(Cl)cccc1Cl [Diclofenac] | – | 0 [drug]/Cmax | 28.3 [drug]/Cmax | 26.7 [drug]/Cmax | 21.0 | – | 15.6% | 1 | – | – | – | synergized with TNF to cause cytotoxicity | caused no cytotoxicity on their own | 23.9 [drug]/Cmax | 23.2 [drug]/Cmax | – | – | R10 (HepG2 cells): 0 [drug]/Cmax; effect of IFN coexposure on the drug/TNF cytotoxic interaction (HepG2 cells): coexposure to IFN enhanced the cytotoxic interaction; Emax (HepG2 cells; HepG2, read-out: D10): < 10%
3 | CC(C)C(=O)Nc1ccc([N+](=O)[O-])c(C(F)(F)F)c1 [Flutamide] | 0 [drug]/Cmax | 0 [drug]/Cmax | 0 [drug]/Cmax | 0 [drug]/Cmax | 0.4 | < 10% | 24.6% | 0 | 0.36 µM | IDILI+ | IDILI+ | very small but statistically significant increases in LDH release | statistically significant increase in LDH release; also recorded: very small but statistically significant increases in LDH release | – | – | – | – | synergy with cytokines to kill HepG2 cells (HepG2 cells): did not synergize with cytokines to kill HepG2 cells
4 | CC(C)Cc1ccc(C(C)C(=O)O)cc1 (stereo not drawn) [Ibuprofen] | 51.7 [drug]/Cmax | 51.3 [drug]/Cmax | 14.4 [drug]/Cmax | 15.5 [drug]/Cmax | 3.9 | > 10% | 101% | 0 | 164 µM | – | – | TNF significantly enhanced the cytotoxicity | statistically significant increase in LDH release | 14.1 [drug]/Cmax | 14.6 [drug]/Cmax | 50.9 [drug]/Cmax | 50.7 [drug]/Cmax | –
5 | C[C@H]1COc2c(N3CCN(C)CC3)c(F)cc3c(=O)c(C(=O)O)cn1c23 [Levofloxacin] | 0 [drug]/Cmax | 0 [drug]/Cmax | 0 [drug]/Cmax | 0 [drug]/Cmax | 0 | < 10% | 14% | 0 | 15.7 µM | – | – | – | – | – | – | – | – | –
6 | COc1c(N2C[C@@H]3CCCN[C@@H]3C2)c(F)cc2c(=O)c(C(=O)O)cn(C3CC3)c12 [Moxifloxacin] | 0 [drug]/Cmax | 0 [drug]/Cmax | 0 [drug]/Cmax | 0 [drug]/Cmax | 0 | < 10% | 9.7% | 0 | 6.2 µM | – | – | – | – | – | – | – | – | –
7 | CCc1ccc(CCOc2ccc(CC3SC(=O)NC3=O)cc2)nc1 (stereo not drawn) [Pioglitazone] | 80.1 [drug]/Cmax | 84.6 [drug]/Cmax | 84.5 [drug]/Cmax | 87.3 [drug]/Cmax | 0.8 | – | 44.1% | 0 | 2.67 µM | IDILI− | IDILI− | – | caused cytotoxicity on its own | 72.8 [drug]/Cmax | 81.8 [drug]/Cmax | 71.4 [drug]/Cmax | 74.2 [drug]/Cmax | synergy with cytokines to kill HepG2 cells (HepG2 cells): not enhanced by the addition of cytokines; D10 (LDH rise of at least 10 points, yes/no) (HepG2 cells; [7]): > 10%
8 | CC[C@H]1OC(=O)[C@H](C)C(=O)[C@H](C)[C@@H](O[C@@H]2O[C@H](C)C[C@H](N(C)C)[C@H]2O)[C@](C)(OC)C[C@@H](C)C(=O)[C@H](C)[C@H]2N(CCCCn3cnc(-c4cccnc4)c3)C(=O)O[C@]12C [Telithromycin] | 76.6 [drug]/Cmax | 81.3 [drug]/Cmax | 50.5 [drug]/Cmax | 39.3 [drug]/Cmax | −17.1 | – | 117% | 0 | 2.77 µM | IDILI+ | IDILI+ | TNF significantly enhanced the cytotoxicity | statistically significant increase in LDH release | 47.7 [drug]/Cmax | 39.0 [drug]/Cmax | 77.0 [drug]/Cmax | 80.7 [drug]/Cmax | effect of IFN coexposure on the drug/TNF cytotoxic interaction (HepG2 cells): coexposure to IFN enhanced the cytotoxic interaction; D10 (LDH rise of at least 10 points, yes/no) (HepG2 cells; [7]): > 10%
9 | CCCC(CCC)C(=O)O [Valproic Acid] | – | 51.3 [drug]/Cmax | 23.3 [drug]/Cmax | – | 37.1 | – | 44.5% | 0 | 175 µM | IDILI+ | – | – | – | – | – | – | 23.4 [drug]/Cmax | –
